Reference: paper PMC5201116, “Bioactive Flavonoids and Catechols as Hif1 and Nrf2 Protein Stabilizers - Implications for Parkinson’s Disease” (Aging and Disease, 2016)
Read-outs that look alike come from different tables or passages of the source.

What was measured:
[1] = test system: HIF1 ODD-luc reporter (SH-SY5Y cell line); assay: HIF1 ODD-luc reporter assay; assay type: cell-based; conditions: for fold induction at 10 µM: 3 h, read-out: ODD-luc fold activation
Method: (§1) SH-SY5Y cell lines stably expressing HIF1 ODD-luc or Neh2-luc reporters were grown in the DMEM/F12 supplemented with GlutaMAX (Thermo Fisher Scientific) containing 10% FBS, 100 U/ml penicillin, and 100 μg/ml streptomycin and plated into 384-well white flat-bottom plates at 7,000 cell/well in 30 µl serum and incubated overnight at 37°C, 5% CO2. The next day compounds were added to a final concentration of 10 µM and the plates were incubated for 3 hours at 37°C. Reporter activation after 3 h incubation with the studied compound was compared to that for ciclopirox (HIF1 ODD-luc reporter) or TBHQ (Neh2-luc reporter), taken as 100%. Luciferase reporter activity was measured with a SteadyGlo reagent from Promega providing stable reading for 1 h.
(§2) Cells were plated at the density of 25,000 cell per well using a WellMate multichannel dispenser from Matrix (Thermo Fisher Scientific, Waltham, MA) and grown overnight on DMEM/F12+GlutaMAX (100 µl per well). Then an inhibitor was added, and the plates were incubated for a fixed time interval; the medium was removed, cells lysed, and luciferase activity was measured on a SpectraMax M5e platereader (Molecular Devices, Sunnyvale, CA) with BrightGlo™ reagent (Promega, Madison, WI). The reporter activation was normalized to the background luminescence. The effect of 0.5 mM N-acetylcysteine (NAC) was studied by simultaneous addition of 5 µL of 10 mM stock of NAC in water and 2 µL of 50x stock solutions of a flavonoid in DMSO.

[2] = test system: HRE-luciferase reporter (HT22 hippocampal cell line); assay: HRE-luc reporter assay; assay type: cell-based; conditions: for fold induction at 10 µM: Mus musculus, HT-22, 3 h, read-out: HRE-luc fold activation
Description: A promoter-reporter construct that contained 68 bp of a known hypoxia and HIF-1 regulated gene, enolase, containing a wild type hypoxia response element (HRE, 5’-RCTGT-3’), is a widely used approach for screening for HIF activators of different mechanism of action. A cell-based assay with HRE-luciferase reporter system is based on transfected immortalized hippocampal cell line (HT22) and allows screening for a broad spectrum of compounds that include: activators of HIF transcription; activators of HIF binding to HRE; and effectors of HIF protein stability (PHD inhibitors, pVHL & proteasome inhibitors). The assay was performed the same way as for HIF ODD-luc reporter except the cells were plated at the density of 10,000 cell per well and incubated overnight.

[3] = test system: Neh2-luc reporter (SH-SY5Y cell line); assay: Neh2-luc reporter assay; assay type: cell-based; conditions: for EC50 / fold induction at 10 µM: Homo sapiens, SH-SY5Y; for EC50: Neh2-luc; for fold induction at 10 µM / Neh2-luc fold activation: 3 h incubation, at 10 µM; for fold induction at 10 µM: read-out: Neh2-luc fold activation; for effect of NAC on Neh2-luc reporter activation: simultaneous addition of 0.5 mM NAC, results not shown
Method: as §1, §2

[4] = Iron binding constant, calcein displacement assay; assay type: physicochemical; conditions: calcein displacement
Description: Calcein displacement assay in the presence of varied concentrations of flavonoids and catechols has been used. Calcein release from its complex with iron was monitored by fluorescence as described in [26].

[5] = Non-enzymatic ferricyanide reduction rate constant; assay type: physicochemical; conditions: 1 mM ferricyanide, pH 7.0
Method: The rate of ferricyanide reduction by individual flavonoids was measured spectrophotometrically at 420 nm with the fixed concentration of ferricyanide (1 mM) and varied concentrations of a flavonoid in Potassium-phosphate buffer, pH 7.0. The rate constant for direct ferricyanide reduction was calculated from the slope of the dependence reaction rate vs flavonoid concentration and used as a measure of flavonoid non-specific reducing power.

[6] = target: T1, Rabbit Reticulocyte 15-LOX-1 (Oryctolagus cuniculus, UniProt P12530); assay: Rabbit LOX 12/15 (rabbit reticulocyte 15-LOX-1) activity; assay type: biochemical; conditions: compounds at 25 µM, Fig. 4A
T1 sequence (P12530 1-663): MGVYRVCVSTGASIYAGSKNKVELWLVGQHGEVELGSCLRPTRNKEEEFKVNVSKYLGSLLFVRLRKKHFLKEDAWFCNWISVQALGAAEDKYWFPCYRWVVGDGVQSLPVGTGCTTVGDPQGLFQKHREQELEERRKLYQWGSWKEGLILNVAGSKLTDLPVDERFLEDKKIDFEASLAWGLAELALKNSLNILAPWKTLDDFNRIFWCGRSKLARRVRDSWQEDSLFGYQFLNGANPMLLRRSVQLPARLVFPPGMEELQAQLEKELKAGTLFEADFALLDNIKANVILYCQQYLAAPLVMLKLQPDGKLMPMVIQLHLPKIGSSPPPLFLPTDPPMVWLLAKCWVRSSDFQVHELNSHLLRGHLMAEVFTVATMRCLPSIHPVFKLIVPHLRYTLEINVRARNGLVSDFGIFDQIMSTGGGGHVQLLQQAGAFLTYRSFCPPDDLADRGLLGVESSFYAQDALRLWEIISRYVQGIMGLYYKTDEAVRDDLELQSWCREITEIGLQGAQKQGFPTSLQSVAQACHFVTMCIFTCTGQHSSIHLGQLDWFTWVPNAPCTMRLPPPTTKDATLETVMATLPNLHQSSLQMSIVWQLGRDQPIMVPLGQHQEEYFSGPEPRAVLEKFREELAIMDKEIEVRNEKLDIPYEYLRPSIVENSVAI
Method: The activity of the purified enzyme was measured in the end-point in vitro assay of arachidonic acid oxidation following the formation of fluorescent diphenyl-1-pyrenylphosphine oxide. DMSO was used as a control.

[7] = test system: primary neuronal cultures treated with 5 mM HCA; assay: Glutathione depletion (HCA) model, MTT viability; assay type: cell-based, rat; conditions: glutathione depletion model, Fig. 5
Method: Primary neuronal cultures were prepared from the forebrains of Sprague-Dawley rat embryos (E17) and plated on 96 well plates at a 10^6 cells/ml density. After 24 hours, cells were rinsed with warm PBS and then placed in minimum Essential Medium (MEM; Life Technologies, Grand Island, NY) containing 5 mM HCA in the presence of a compound of interest at varied concentrations. Cells were incubated for 24 h or longer to see 90% cell death in HCA treated controls. Viability was assessed by the MTT (4,5-dimethylthiazol-2-yl)-2,5-diphenyltetrazolium bromide) assay.

[8] = set-up: method as in PMID 17112238; conditions: cited from earlier work
HIF PHD2 = conditions: cited from earlier work
[9] = test system: rotenone-induced hemiparkinsonian rats; set-up: method as in PMID 23357119; conditions: 25-75 mg/kg twice a day for 4 days; cited from earlier work
[10] = test system: VEGF mRNA in immature primary cortical neurons; assay: VEGF mRNA induction, real-time RT-PCR; assay type: cell-based; conditions: overnight pretreatment, Fig. 4B
Method: For VEGF gene expression studies, total RNA was isolated from immature primary cortical neurons, pretreated overnight with the indicated concentration of a bioactive compound, using the NucleoSpin RNA II kit (Macherey-Nagel, Bethlehem, PA) according to manufacturer’s protocol. Real-time PCR was performed in triplicate as a duplex reaction using a VEGF (Mm01281449_m1) gene expression assay with a 6-carboxyfluorescein-labeled probe, and a β actin gene expression assay with a VIC-labeled probe (Applied Biosystems, Foster City, CA), so that gene amplification could be normalized to β actin. These experiments were performed using a 7500 Real-time PCR System (Applied Biosystems) using standard PCR protocol and amplification conditions.

HIF prolyl hydroxylase = target: HIF prolyl hydroxylase; set-up: method as in PMID 3011801; conditions: enzyme in vitro assay; read-out: enzyme inhibition constant; cited from earlier work
[11] = Homo sapiens, SH-SY5Y, at 10 µM, 3 h incubation

SMILES | fold induction at 10 µM [1, 11] | fold induction at 10 µM [2] | EC50 [3] [µM] | fold induction at 10 µM [3] | effect of NAC on Neh2-luc reporter activation [3] | Iron complex Diss. Const [4] [µM] | FC red Rate Const [5] [M⁻¹ s⁻¹] | LOX inhibition [6] | concentration at which neuroprotection begins [7] [µM] | EHOMO [8] [eV] | Neh2-luc fold activation [3] | further results
O=c1c(O)c(-c2ccc(O)c(O)c2)oc2cc(O)ccc12 [compound 10, Fisetin] | 1.6 ± 0.2 | 2 ± 0.2 | 2 | 23 ± 3 | no effect | 2.7 ± 0.3 | 301000 ± 34000 | equipotent as LOX inhibitors | 2.5 | -8.69 | – | –
O=c1c(O)c(-c2ccc(O)c(O)c2)oc2cc(O)cc(O)c12 [compound 11, Quercetin] | 1.5 ± 0.2 | 2 ± 0.2 | 2 | 24 ± 3 | no effect | 2.7 ± 0.3 | 366000 ± 39000 | – | – | -8.72 | – | EC50 ([1]; Homo sapiens, SH-SY5Y): ~2.5 µM; Ki (HIF PHD2; read-out: HIF PHD2 apparent inhibition constant): 10 µM; neuroprotection in rotenone model [9]: neuroprotective
O=c1cc(-c2ccccc2)oc2cc(O)c(O)c(O)c12 [compound 17, Baicalein] | – | 5 ± 0.6 | – | – | – | 2.5 ± 0.3 | 25500 ± 3000 | – | – | -8.99 | Inactive | ODD-luc fold activation ([1]; at 10 µM, 3 h incubation): Inactive; Ki (HIF PHD2; competitive with α-KG, read-out: PHD2 Ki): 7 µM
O=c1cc(-c2ccc(O)c(O)c2)oc2cc(O)cc(O)c12 [compound 18, Luteolin] | 2.5 ± 0.3 | 2 ± 0.25 | 2 | 5 ± 0.6 | – | 3.5 ± 0.4 | 130000 ± 15000 | equipotent as LOX inhibitors | 1.2 | -9.09 | – | –
O=c1cc(-c2ccc(O)c(O)c2)oc2ccccc12 [compound 19, 3’,4’-dihydroxyflavone] | 2.5 ± 0.3 | 2 ± 0.25 | 2 | 15 ± 2 | – | 2.5 ± 0.3 | – | – | – | – | – | Induction of VEGF mRNA [10]: mild inducers
CCOC(=O)c1ccc(O)c(O)c1 [compound 32, Ethyl 3,4-dihydroxybenzoate, reference compound] | – | – | 20 | – | – | 2.5 ± 0.3 | – | – | – | – | Inactive | ODD-luc: concentration above which active [1]: Active above 50 µM; ODD-luc: concentration above which active ([1]; listed as DHB): above 50 µM; HRE-luc: concentration above which active [2]: Active above 20 µM; Ki (HIF prolyl hydroxylase): 5 µM
